Measurements as given in patent US11684614B2, “Formulations of hydroxypyridonate actinide/lanthanide decorporation agents” (priority 2017, dated 2023).
“And” between values parts separate entries of the source, which are not always exact repeats. Equal values may be shown once.

Assay: Repeated-treatment efficacy for removing an intravenous dose of 238Pu (excretion, tissue retention, clinical observations), female and male arms
Assay type: in vivo, Swiss-Webster mice
Conditions: for % Recovered Dose - Feces per Day: male mice, listed as 3,4,3-LI(1,2-HOPO)
Procedure: The objective of this study was to characterize the efficacy of 3,4,3-L1(1,2-HOPO) at enhancing elimination from an internal plutonium burden in female and male Swiss-Webster mice administered a soluble citrate complex of ^238Pu and treated multiple times, starting at 24 hours after the exposure. Efficacy was evaluated by comparing the tissue contents, urinary and fecal excretions of ^238Pu in treated animals versus untreated animals.
The medical countermeasure 3,4,3-L1(1,2-HOPO) was administered parenterally (ip) or orally (po) via consecutive injections or gavages (six daily or twelve twice daily) starting at 24 hours post contamination at the following four selected doses: 30 μmol/kg ip, 150 μmol/kg po, 300 μmol/kg po, and 600 μmol/kg po (equivalent to respective approximate human doses range of […], using the accepted conversion system of mouse doses into human equivalent doses—HED—based on body surface area). Oral doses also included the permeability enhancer selected during formulation development work.
• Challenge isotope: ^238Pu • Challenge dose: 25 nCi (i.e., approximately 0.8 μCi/kg) • Route of contamination: Intravenous (iv) tail-vein • Route of treatment: Intraperitoneal Injection (ip) or Oral (po) • Frequency of treatment: Multiple (once- or twice-daily for 6 days) doses, starting 24 hr postcontamination • Treatment dose calculation: Dose calculations (mg/kg or μmol/kg) for the decorporation agent were based on the individual body weight measured after contamination. • Study Duration: 11 days, in-life
c. […] Test article and control dose formulations were prepared within 1 day of dose administration, by weighing out the appropriate amount of test article, dispersing in vehicle. For ip solutions, the test article was used alone, while for oral suspensions, a mixture of test article and excipient (90:10, w:w) was used. The pH was adjusted to 7.0-7.4 for ip administration and 5.0-5.5 for oral administration with sterile NaOH. Dose formulations were prepared at room temperature and filter-sterilized. • Storage: 2-8° C.; refrigerated; protected from light. • Characterization: The concentration of each test article formulation was verified by high-performance liquid chromatography-mass spectrometry. • Test Article Handling: Test, reference, and control article formulations were handled with the use of eye protection, gloves, and a protective laboratory coat. • Correct Dose Assurance: The test article was weighed with calibrated balances. The administration of each dose formulation was properly documented, and the amount administered to each animal recorded.
e. Experimental Procedures (In-Life Evaluations and Euthanasia) • Contamination: Single administration by intravenous (iv) tail-vein injection (0.2 mL injection volume) under isoflurane anesthesia. Three standard 0.2 mL injections were performed into polyethylene bottles and pre-loaded with aliquots of concentrated nitric acid on each injection day. Six female and six male mice were culled for necropsy 1 hr post-contamination and were used as standards. A11 standards were processed and counted together with the final samples to allow verification of the contamination dose. • Dose Administration: Single administration by intraperitoneal injection (ip) or oral gavage (po) under isoflurane anesthesia. • Mortality/Morbidity: Assessed at least once daily. • Clinical Observations: Recorded once daily (4 hr post-dose on day of treatment), or more often as clinical signs warranted. […]

## O=C(NCCCN(CCCCN(CCCNC(=O)c1cccc(=O)n1O)C(=O)c1cccc(=O)n1O)C(=O)c1cccc(=O)n1O)c1cccc(=O)n1O [3,4,3-L1(1,2-HOPO)]
Group I, feces day 1, Day 11 necropsy
  % Recovered Dose - Feces per Day: 9.44% and 11.73% and 10.15% and 5.92% and 9.00% and 6.11% and 8.55% and 9.19%
Group I, feces day 3, Day 11 necropsy
  % Recovered Dose - Feces per Day: 7.33% and 7.00% and 5.92% and 6.28% and 9.54% and 7.12% and 7.60% and 4.73%
Group I, feces day 4, Day 11 necropsy
  % Recovered Dose - Feces per Day: 4.73% and 4.29% and 4.45% and 3.39% and 5.21% and 4.16% and 3.65% and 3.13%
Group I, feces day 5, Day 11 necropsy
  % Recovered Dose - Feces per Day: 2.15% and 1.67% and 2.13% and 2.90% and 1.73% and 2.06% and 1.56% and 2.26%
Group I, feces day 6, Day 11 necropsy
  % Recovered Dose - Feces per Day: 1.96% and 1.64% and 1.89% and 2.15% and 2.00% and 1.56% and 1.92% and 1.66%
Group I, feces day 7, Day 11 necropsy
  % Recovered Dose - Feces per Day: 1.48% and 2.52% and 0.83% and 1.51% and 0.94% and 1.29% and 1.15% and 1.02%
Group I, feces day 8, Day 11 necropsy
  % Recovered Dose - Feces per Day: 0.86% and 0.84% and 0.55% and 0.76% and 1.22% and 0.87%
Group I, feces day 9, Day 11 necropsy
  % Recovered Dose - Feces per Day: 0.53% and 0.71% and 0.43% and 0.64% and 0.57% and 0.47% and 0.49%
Group I, feces day 10, Day 11 necropsy
  % Recovered Dose - Feces per Day: 0.46% and 0.52% and 0.43% and 0.45% and 0.40% and 0.47% and 0.36%
Group I, feces day 11, Day 11 necropsy
  % Recovered Dose - Feces per Day: 0.47% and 0.38% and 0.37% and 0.43% and 0.48% and 0.44% and 0.50%
Group L, feces day 2, Day 11 necropsy
  % Recovered Dose - Feces per Day: 9.49% and 10.37% and 11.59% and 15.06% and 13.00% and 13.15% and 16.38% and 8.84%
Group L, feces day 3, Day 11 necropsy
  % Recovered Dose - Feces per Day: 2.02% and 3.23% and 3.48% and 4.47% and 2.87% and 3.37% and 4.43% and 2.71%
Group L, feces day 4, Day 11 necropsy
  % Recovered Dose - Feces per Day: 1.98% and 2.69% and 3.71% and 6.81% and 3.67% and 4.04% and 3.55% and 3.76%
Group L, feces day 5, Day 11 necropsy
  % Recovered Dose - Feces per Day: 1.04% and 1.47% and 2.57% and 2.42% and 1.75% and 1.82% and 2.26% and 1.72%
Group L, feces day 6, Day 11 necropsy
  % Recovered Dose - Feces per Day: 3.32% and 1.94% and 2.97% and 2.78% and 2.36% and 3.15% and 2.15% and 2.74%
Group L, feces day 7, Day 11 necropsy
  % Recovered Dose - Feces per Day: 1.56% and 1.72% and 1.53% and 1.45% and 2.10% and 1.44% and 1.80% and 1.29%
Group L, feces day 8, Day 11 necropsy
  % Recovered Dose - Feces per Day: 1.03% and 1.27% and 1.54% and 1.58% and 1.33% and 1.26% and 1.23% and 0.92%
Group L, feces day 9, Day 11 necropsy
  % Recovered Dose - Feces per Day: 0.88% and 0.94% and 0.96% and 0.57% and 1.17% and 1.08% and 0.78%
Group L, feces day 10, Day 11 necropsy
  % Recovered Dose - Feces per Day: 0.60% and 0.98% and 0.96% and 0.65% and 0.99% and 1.01% and 1.02% and 0.90%
Group L, feces day 11, Day 11 necropsy
  % Recovered Dose - Feces per Day: 0.63% and 0.89% and 0.79% and 0.66% and 0.87% and 0.84%
Group M, feces day 2, Day 11 necropsy
  % Recovered Dose - Feces per Day: 16.84% and 15.20% and 15.54% and 13.29% and 15.04% and 19.29% and 14.53% and 19.54%
Group M, feces day 3, Day 11 necropsy
  % Recovered Dose - Feces per Day: 4.32% and 6.13% and 4.17% and 2.65% and 4.16% and 6.33% and 4.24% and 3.82%
Group M, feces day 4, Day 11 necropsy
  % Recovered Dose - Feces per Day: 3.42% and 4.94% and 4.01% and 4.02% and 6.06% and 4.40% and 3.22% and 2.93%
Group M, feces day 5, Day 11 necropsy
  % Recovered Dose - Feces per Day: 1.00% and 2.50% and 1.52% and 1.62% and 1.76% and 1.90% and 1.20% and 1.08%
Group M, feces day 6, Day 11 necropsy
  % Recovered Dose - Feces per Day: 10.71% and 2.32% and 2.47% and 1.70% and 3.63% and 2.41% and 1.58% and 1.99%
Group M, feces day 7, Day 11 necropsy
  % Recovered Dose - Feces per Day: 5.02% and 2.31% and 1.09% and 1.15% and 1.51% and 1.35% and 0.86% and 1.01%
Group M, feces day 8, Day 11 necropsy
  % Recovered Dose - Feces per Day: 1.81% and 1.55% and 1.22% and 0.94% and 1.24% and 2.07% and 0.87% and 1.10%
Group M, feces day 9, Day 11 necropsy
  % Recovered Dose - Feces per Day: 1.01% and 1.12% and 0.73% and 0.57% and 0.96% and 0.64% and 0.76%
Group M, feces day 10, Day 11 necropsy
  % Recovered Dose - Feces per Day: 0.48% and 0.47% and 0.92% and 0.59% and 0.65% and 1.22% and 0.76% and 0.85%
Group M, feces day 11, Day 11 necropsy
  % Recovered Dose - Feces per Day: 0.57% and 0.46% and 0.82% and 0.41% and 0.70% and 1.12% and 0.68% and 1.01%
male, 6 daily oral treatments, 600 μmol/kg, 11 days post-contamination
  increase in total 238Pu excretion compared to the control groups: up to 156%
male, all analyzed tissues, all dosing regimens
  tissue content of 238Pu compared to saline control group: large reductions
male, all treated groups
  full body content of 238Pu compared to saline control groups: significant reductions
male, once-daily oral 600 μmol/kg, 11 days post-contamination
  decrease in body burden compared to the control groups: up to 48%
male, oral once-daily 300 and 600 μmol/kg
  decorporation efficacy relative to parenteral DTPA: equivalent to that of parenteral treatment with DTPA
male, oral twice-daily 150 and 300 μmol/kg or once-daily 300 and 600 μmol/kg, 7 days post-contamination
  238Pu elimination enhancement: significant
